From US8993585B2, “Cyclic amine substituted pyrimidinediamines as PKC inhibitors” (Rigel Pharmaceuticals, Inc., priority 2007, dated 2015)

These molecules were tested on Human primary T cells (assay: IL-2 ELISA, Human Primary T Cell, Anti-CD3+CD28+ (Example 3)). Details: Homo sapiens, T-cell, 24 h, anti-CD3+CD28 stimulation.
Type: cell-based
Protocol: Human primary T cell isolation and culture: Human primary T cells were prepared as follows. […] The cells at the serum:ficoll interface were recovered and washed twice with 5 volumes of PBS. […] The primary T-cells were then washed twice with PBS to remove the IL-2.
Primary T cell stimulation and IL2 ELISA: Human primary T cells (100,000 cells per well) were pre-incubated with or without test compound in Yssel's medium for 1 hr at 37° C. Cells were then stimulated by transferring them to round-bottom 96-well plates pre-coated with 1 ug/ml αCD3 and 5 μg/ml αCD28. For counter assay, cells were instead stimulated by adding 8× stock solutions of PMA and ionomycin in Yssels (for final concentrations of 0.5 ng/ml PMA and 0.1 uM ionomycin, both from Calbiochem).

| Structure (SMILES) | IC50 |
| --- | --- |
| CN1C(C)(C)CC(Nc2nc(Nc3ccc(-c4ccc(N5CCOCC5)nc4)c(C#N)c3)ncc2F)CC1(C)C [Compound I-427] | 0.66 µM |
| Cc1ccc(Nc2ncc(F)c(N(Cc3ccc(-c4ccccc4)cc3)C3CC(C)(C)N(C)C(C)(C)C3)n2)cc1C#N [Compound I-318] | 2.51 µM |
| COc1cc(Nc2ncc(F)c(N(Cc3ccc(-c4ccccc4)cc3)C3CC(C)(C)N(C)C(C)(C)C3)n2)cc(OC)c1 [Compound I-317] | 2.42 µM |
| Cc1ccc(Nc2ncc(F)c(N(Cc3ccc4ccccc4c3)C3CC(C)(C)N(C)C(C)(C)C3)n2)cc1C#N [Compound I-315] | 3.39 µM |
| Cc1ccc(Nc2ncc(F)c(N(Cc3ccc4ccccc4n3)C3CC(C)(C)N(C)C(C)(C)C3)n2)cc1C#N [Compound I-320] | 6.14 µM |
| Cc1ccc(Nc2ncc(F)c(N(Cc3ccc(-c4ccccc4C#N)cc3)C3CC(C)(C)N(C)C(C)(C)C3)n2)cc1C#N [Compound I-326] | 3.08 µM |
| Cc1ccc(C)n1-c1cc(Nc2ncc(F)c(NC3CC(C)(C)NC(C)(C)C3)n2)ccc1OCCN1CCCC1 [Compound I-442] | 1.77 µM |
| CN1C(C)(C)CC(N(Cc2ccccc2)c2nc(Nc3ccc(N4CCOCC4)c(C(F)(F)F)c3)ncc2F)CC1(C)C [Compound I-312] | 1.69 µM |
| COc1cc(Nc2ncc(F)c(N(Cc3cc4c(cc3Br)OCO4)C3CC(C)(C)N(C)C(C)(C)C3)n2)cc(OC)c1 [Compound I-323] | 4.71 µM |
| COc1cc(Nc2ncc(F)c(NC3CC(C)(C)N(C)C(C)(C)C3)n2)cc(OCCN2CCCC2)c1 [Compound I-434] | 0.27 µM |

More lines, now with the values ahead:

| IC50 | Structure (SMILES) |
| --- | --- |
| 0.84 µM | CN1C(C)(C)CC(Nc2nc(Nc3nc(-c4ccc5c(c4)OCCO5)cs3)ncc2F)CC1(C)C [II-132] |
| 7.67 µM | CN1C(C)(C)CC(N(Cc2ccc3ccccc3n2)c2nc(Nc3ccc4c(c3)OCCO4)ncc2F)CC1(C)C [II-89] |
| 1.08 µM | CN1C(C)(C)CC(Nc2nc(Nc3nc4ccc(S(C)(=O)=O)cc4s3)ncc2F)CC1(C)C [II-144] |
| 0.88 µM | CN1C(C)(C)CC(Nc2nc(Nc3cc4c(cc3F)OC(F)(F)C(F)(F)O4)ncc2F)CC1(C)C [II-123] |
| 0.75 µM | CN1C(C)(C)CC(Nc2nc(Nc3ccc4c(c3)oc(=O)n4CCF)ncc2F)CC1(C)C [II-172] |
| 1 µM | CN1C(C)(C)CC(Nc2nc(Nc3nc(-c4ccc(F)cc4F)cs3)ncc2F)CC1(C)C [II-141] |
| 2.12 µM | CCOc1ccc2nc(Nc3ncc(F)c(NC4CC(C)(C)N(C)C(C)(C)C4)n3)sc2c1 [II-18] |
| 0.99 µM | CN1C(C)(C)CC(Nc2nc(Nc3nc4ccc(F)cc4s3)ncc2F)CC1(C)C [II-131] |
| 10.9 µM | COc1cnc(Nc2ccc3c(c2)OCCO3)nc1NC1CC(C)(C)N(C)C(C)(C)C1 [II-129] |
| 11.2 µM | CN1C(C)(C)CC(Nc2nc(Nc3nnc(C(F)(F)F)s3)ncc2F)CC1(C)C [II-13] |
| 2.48 µM | CN1C(C)(C)CC(N(Cc2ccc(-c3ccccc3)cc2)c2nc(Nc3ccc4c(c3)OCCO4)ncc2F)CC1(C)C [II-88] |
| 0.147 µM | CCN1C(=O)C(C)(C)Oc2cc(Nc3ncc(C#N)c(NC4CC(C)(C)NC(C)(C)C4)n3)ccc21 [II-57] |
| 2.1 µM | COc1cccc2sc(Nc3ncc(F)c(NC4CC(C)(C)N(C)C(C)(C)C4)n3)nc12 [II-20] |
| 17.9 µM | CN1CCN(C(=O)C2COc3cc(Nc4ncc(F)c(NC5CC(C)(C)NC(C)(C)C5)n4)ccc3O2)CC1 (stereo not shown) [II-160] |
| 3.6 µM | CCN(CC)c1ccc(-c2csc(Nc3ncc(F)c(NC4CC(C)(C)N(C)C(C)(C)C4)n3)n2)cc1 [II-135] |
| 1.47 µM | CN1C(C)(C)CC(Nc2nc(Nc3ccc4c(c3)OCCCO4)ncc2F)CC1(C)C [II-43] |
| 4.61 µM | CCN(CC)C1CCC(Nc2nc(Nc3ccc(OC)c(Cl)c3)ncc2F)CC1 (stereo not shown) [IV-5, N2-(3-Chloro-4-methoxy)phenyl-N4-(4-diethylamino)cyclohexyl-5-fluoro-2,4-pyrimidinediamine] |
| 0.0383 µM | CN1C(=O)C(C)(C)Sc2cc(Nc3ncc(F)c(NC4CC(C)(C)N(C)C(C)(C)C4)n3)ccc21 [II-62] |
| 16 µM | CN1C(C)(C)CC(Nc2nc(Nc3nc(C(F)(F)F)co3)ncc2F)CC1(C)C [II-134] |
| 1.32 µM | CCn1c(=O)oc2ccc(Nc3ncc(F)c(NC4CC(C)(C)N(C)C(C)(C)C4)n3)cc21 [II-173] |
| 3.66 µM | CN1C(C)(C)CC(Nc2nc(Nc3ccc(NCc4ccccc4)cn3)ncc2F)CC1(C)C [II-85] |

Same assay, conditions: T-cell, anti-CD3+CD28 stimulation, 24 hours

| Structure (SMILES) | IC50 |
| --- | --- |
| CN1C(C)(C)CC(Nc2nc(Nc3ccc4c(c3)OCCO4)ncc2C#C[Si](C)(C)C)CC1(C)C [II-150] | 3.58 µM |

Same assay, conditions: anti-CD3+CD28 stimulation, 24 hours

| Structure (SMILES) | IC50 |
| --- | --- |
| COC(=O)/C=C/N1C(C)(C)CC(Nc2nc(Nc3ccc(OC)c(C(F)(F)F)c3)ncc2F)CC1(C)C [Compound I-301] | 0.951 µM |
| COC(=O)N1CCN(c2ccc(Nc3ncc(F)c(NC4CC(C)(C)N(C)C(C)(C)C4)n3)cc2C(F)(F)F)CC1 [Compound I-47] | 0.136 µM |
| CN1C(C)(C)CC(Nc2nc(Nc3ccc(OC(F)(F)F)c(-c4cnn(C)c4)c3)ncc2F)CC1(C)C [Compound I-210] | 1.24 µM |
| COc1cc(Nc2ncc(C(F)(F)F)c(NC3CC(C)(C)N(C)C(C)(C)C3)n2)cc(-n2nnnc2C)c1 [Compound I-370] | 0.0932 µM |
| CC(=O)Nc1ccc(Nc2ncc(F)c(NC3CC(C)(C)N(C)C(C)(C)C3)n2)cc1C(F)(F)F [Compound I-161] | 1.05 µM |
| Cc1cc(Nc2ncc(F)c(NC3CC(C)(C)N(C)C(C)(C)C3)n2)ccc1-n1cnnn1 [Compound I-397] | 1.98 µM |
| CN1C(C)(C)CC(Nc2nc(Nc3cc(C(F)(F)F)c(Br)c(C(F)(F)F)c3)ncc2F)CC1(C)C [Compound I-117] | 1.25 µM |
| CN1C(C)(C)CC(Nc2nc(Nc3ccc(S(=O)(=O)N4CCNCC4)c(Cl)c3)ncc2F)CC1(C)C [Compound I-46] | 14.3 µM |
| CCCc1nnnn1-c1cc(Nc2ncc(F)c(NC3CC(C)(C)N(C)C(C)(C)C3)n2)ccc1OC [Compound I-395] | 0.1 µM |
| COc1ccc(Nc2ncc(F)c(NC3CC(C)(C)N(C)C(C)(C)C3)n2)cc1OCc1cccnc1 [Compound I-418] | 2.19 µM |
| CN1C(C)(C)CC(Nc2nc(Nc3cc(OCC(F)(F)F)cc(OCC(F)(F)F)c3)ncc2C#N)CC1(C)C [Compound I-411] | 0.28 µM |
| CN1C(C)(C)CC(Nc2nc(Nc3ccc(N4CCN(S(C)(=O)=O)CC4)c(C(F)(F)F)c3)ncc2C(F)(F)F)CC1(C)C [Compound I-88] | 0.287 µM |
| CN1C(C)(C)CC(Nc2nc(Nc3cccc(OC(F)(F)F)c3)ncc2Br)CC1(C)C [Compound I-275] | 0.617 µM |
| CCN1CCN(c2ccc(Nc3ncc(C)c(NC4CC(C)(C)N(C)C(C)(C)C4)n3)cc2C)CC1 [Compound I-18] | 9.44 µM |
| Cc1nccc(-c2cccc(Nc3ncc(F)c(NC4CC(C)(C)N(C)C(C)(C)C4)n3)c2)n1 [Compound I-69] | 2.39 µM |
| CN1C(C)(C)CC(Nc2nc(Nc3ccc(N4CCCCC4)c(C(F)(F)F)c3)ncc2F)CC1(C)C [Compound I-233] | 1.6 µM |
| COc1ccc(Nc2ncc(F)c(NC3CC(C)(C)N(C)C(C)(C)C3)n2)cc1OC [Compound I-130] | 1.1 µM |

| Structure (SMILES) | IC50 |
| --- | --- |
| CN1CCN(c2ccc(Nc3ncc(Cl)c(NC4CC(C)(C)N(C)C(C)(C)C4)n3)cc2C(F)(F)F)CC1 [Compound I-37] | 0.511 µM |
| CN1C(C)(C)CC(Nc2nc(Nc3ccc(C(=O)NCCc4ccccn4)c(Cl)c3)ncc2F)CC1(C)C [Compound I-362] | 0.667 µM |
| CC(=O)N1C(C)(C)CC(Nc2nc(Nc3ccc(N4CCN(C)CC4)c(C(F)(F)F)c3)ncc2F)CC1(C)C [Compound I-219] | 20.8 µM |
| CN1C(C)(C)CC(Nc2nc(Nc3cnc(N4CCOCC4)c(C(F)(F)F)c3)ncc2F)CC1(C)C [Compound I-271] | 0.67 µM |
| CN1C(C)(C)CC(Nc2nc(Nc3ccc(-n4cnnn4)cc3)ncc2F)CC1(C)C [Compound I-400] | 1.69 µM |
| CN1C(C)(C)CC(Nc2nc(Nc3ccc(F)c(-n4cnnn4)c3)ncc2F)CC1(C)C [Compound I-466] | 0.24 µM |
| CN1C(C)(C)CC(Nc2nc(Nc3ccc(Cl)c(N4CCN(S(C)(=O)=O)CC4)c3)ncc2F)CC1(C)C [Compound I-68] | 0.589 µM |
| COCCOc1cc(Nc2ncc(F)c(NC3CC(C)(C)NC(C)(C)C3)n2)cc(OCCOC)c1 [Compound I-394] | 2.96 µM |
| CCOC(=O)c1cnc(Nc2cccc(C#N)c2)nc1NC1CC(C)(C)N(C)C(C)(C)C1 [Compound I-81] | 28.6 µM |
| CN1C(C)(C)CC(Nc2nc(Nc3ccc(OCCN4CCOCC4)c(Cl)c3)ncc2C#N)CC1(C)C [Compound I-373] | 0.542 µM |
| COc1ccc(Nc2ncc(F)c(NC3CC(C)(C)N(C)C(C)(C)C3)n2)cc1OCC(F)(F)F [Compound I-401] | 3.16 µM |
| CN1C(C)(C)CC(Nc2nc(Nc3ccc(N4CCN(S(C)(=O)=O)CC4)c(C#N)c3)ncc2C(F)(F)F)CC1(C)C [Compound I-176] | 0.655 µM |
| CN(c1nc(Nc2cccc(C#N)c2)ncc1F)C1CC(C)(C)N(C)C(C)(C)C1 [Compound I-66] | 1.46 µM |
| CN1CCN(c2ccc(Nc3ncc(C(N)=O)c(NC4CC(C)(C)N(C)C(C)(C)C4)n3)cc2Cl)CC1 [Compound I-98] | 1.07 µM |
| COc1cc(Nc2ncc(C(N)=O)c(NC3CC(C)(C)N(C)C(C)(C)C3)n2)cc(-n2cnnn2)c1 [Compound I-390] | 0.68 µM |
| COc1cc(Nc2ncc(F)c(NC3CC(C)(C)NC(C)(C)C3)n2)cc(-n2cnnn2)c1 [Compound I-388] | 0.11 µM |

The next lines start with the values.

| IC50 | Structure (SMILES) |
| --- | --- |
| 0.476 µM | CC(C)N1C(=O)C(C)(C)Oc2cc(Nc3ncc(C#N)c(NC4CC(C)(C)NC(C)(C)C4)n3)ccc21 [II-75] |
| 0.164 µM | CCN1C(=O)C2(CCC2)Oc2cc(Nc3ncc(F)c(NC4CC(C)(C)N(C)C(C)(C)C4)n3)ccc21 [II-69] |
